Assay results from US20210038732A1, “ANTICANCER MICRORNA AND LIPID FORMULATIONS THEREOF” (INTERNA TECHNOLOGIES B.V., priority 2018, published 2021).

Assays:
[1] = system: A20 Reticulum cell sarcoma (lymphoma); experiment: Primary tumor growth, syngeneic model; type: in vivo, mice; conditions: 10 mg/kg i.v BIW x 3-4 weeks, vs PBS
From the text: (§1) In this study, the effect of miRNA-193a formulated in diamino lipid nanoparticles was investigated on the primary tumor growth in a panel of twelve syngeneic tumor models. Six to eight weeks mice (Shanghai Lingchang Bio-Technology Co. Ltd, Shanghai, China) were subcutaneously injected with an appropriate number of syngeneic cancer cells, depending on the cancer model (see Table 18). At the time of randomization, tumor volume (TV) was approximately 80-120 mm^3. Body weights and TVs (caliper measurements) were determined 2-3 times/week. After randomization (indicated as day 0) mice received PBS or miR-193a (formulated in diamino lipid nanoparticles) treatments as shown in Table 19. Each tumor model had two groups as depicted in Table 19. Mice were scheduled to be euthanized after two weeks of follow up after a maximum of four weeks of treatment.

[2] = system: Pan02 Pancreatic adenocarcinoma; experiment: Primary tumor growth, syngeneic model; type: in vivo, mice; conditions: 10 mg/kg i.v BIW x 3-4 weeks, vs PBS
From the text: as §1

H22 Hepatocarcinoma = experiment: Primary tumor growth, syngeneic model; type: in vivo, mice; conditions: 10 mg/kg i.v BIW x 3-4 weeks, vs PBS
From the text: as §1

Hepa 1-6 Hepatoma = experiment: Primary tumor growth, syngeneic model; type: in vivo, mice; conditions: 10 mg/kg i.v BIW x 3-4 weeks, vs PBS
From the text: as §1

CT26 Colon carcinoma = experiment: Primary tumor growth, syngeneic model; type: in vivo, mice; conditions: 10 mg/kg i.v BIW x 3-4 weeks, vs PBS
From the text: as §1

B16-BL6 Melanoma = experiment: Primary tumor growth, syngeneic model; type: in vivo, mice; conditions: 10 mg/kg i.v BIW x 3-4 weeks, vs PBS
From the text: as §1

[3] = system: Renca Renal adenocarcinoma; experiment: Primary tumor growth, syngeneic model; type: in vivo, mice; conditions: 10 mg/kg i.v BIW x 3-4 weeks, vs PBS
From the text: as §1

LL/2 Lung carcinoma = experiment: Primary tumor growth, syngeneic model; type: in vivo, mice; conditions: 10 mg/kg i.v BIW x 3-4 weeks, vs PBS
From the text: as §1

RM-1 Prostate cancer = experiment: Primary tumor growth, syngeneic model; type: in vivo, mice; conditions: 10 mg/kg i.v BIW x 3-4 weeks, vs PBS
From the text: as §1

[4] = system: EMT-6 Breast mammary carcinoma; experiment: Primary tumor growth, syngeneic model; type: in vivo, mice; conditions: 10 mg/kg i.v BIW x 3-4 weeks, vs PBS
From the text: as §1

B16-F10 Melanoma = experiment: Primary tumor growth, syngeneic model; type: in vivo, mice; conditions: 10 mg/kg i.v BIW x 3-4 weeks, vs PBS
From the text: as §1

MC38 Colon carcinoma = experiment: Primary tumor growth, syngeneic model; type: in vivo, mice; conditions: 10 mg/kg i.v BIW x 3-4 weeks, diamino lipid nanoparticles, vs PBS, median tumor volume
From the text: as §1

A2058 cells = experiment: In vitro transwell migration assay; type: cell-based, human; conditions: miRNA-193a-3p at 10 nM; vs scrambled
Experimental: To check the migratory ability of cells, a Boyden Chamber assay was performed, which is based on a chamber of two medium-filled compartments separated by a […] pore size membrane (BD falcon). In this assay, depending on cell type 60,000-120,000 cells were seeded in the upper compartment of the membrane in serum free medium and were allowed to migrate through the pores of the membrane into the lower compartment, in which serum is present in the media. The serum acts as a chemoattractant. After an appropriate incubation time, the membrane between two compartments was fixed, stained and 6 different images from each membrane were taken. The number of migratory cells were counted using Image J analysis.
To assess the impact of miRNA-193a-3p on adenosine generation, the release of free phosphate in A2058 melanoma cells was measured as a read out for ATP, ADP, and AMP dephosphorylation in supernatants. […] Similar results were found by measuring the direct amount of adenosine in cell culture supernatants (FIG. 16B). Further, the role of miRNA-193a in A2058 cancer cell migration was investigated.

4T1 = experiment: Caspase 3/7 apoptosis assay; type: cell-based, mouse; conditions: 10 nM, normalized to mock
Experimental: Depending on cancer cell type 3000-6000 cells were seeded in a 96 well plate. After cells attached, they were transfected with different concentrations of miRNA-193a and apoptosis induction was measured at different time points. This assay was performed using Promega kit. 100 uL of caspase reagent was added to 100 uL of media in each well in 96-well plate and incubated for 2 hours in the dark at room temperature. The luminescent signal was read on a luminescent plate reader.
Different biological effects of miRNA-193a-3p have been tested in various cancer cell lines (see Table 13). For this, various cells were treated with miRNA-193a at different concentrations (1, 3, 10 nM). For all experiments controls (untreated, mock and scrambled) were measured. All assays were performed at 24h, 48h and 72h time points. Data shown in Table 13 are the results for miRNA-193a at 10 nM concentration at indicated time points. All the results have been quantified and normalized to the mock control.
miRNA-193a treatment in various cancer cell lines decreased cell viability over time as measured by either an MTS assay or by cell count. It enhanced apoptosis induction over time as measured by a caspase 3/7 apoptosis assay. […] It is of note that due to intrinsic characteristics and gene mutation status of each cell line, performing one method to detect apoptosis is not always ideal for all cell lines.

Substance: miRNA-193a: duplex of the miRNA-193a-3p of SEQ ID NO: 218 (mimic, sense) with antisense strand SEQ ID NO: 219; naked in vitro, formulated in vivo (sense UGGGACUUUGUAGGCCAGUUTT; antisense AACUGGCCUACAAAGUCCCAGU; chemistry not given here; listed as Homo sapiens)
- % TGI by miRNA-193a [1]: 54%
- % TGI by miRNA-193a [2]: 46%
- % TGI by miRNA-193a (H22 Hepatocarcinoma): 45%
- % TGI by miRNA-193a (Hepa 1-6 Hepatoma): 7%
- % TGI by miRNA-193a (CT26 Colon carcinoma): 12%
- % TGI by miRNA-193a (B16-BL6 Melanoma): 34%
- % TGI by miRNA-193a [3]: 22%
- % TGI by miRNA-193a (LL/2 Lung carcinoma): 64%
- % TGI by miRNA-193a (RM-1 Prostate cancer): 25%
- % TGI by miRNA-193a [4]: 42%
- % TGI by miRNA-193a (B16-F10 Melanoma): 56%
- % TGI by miRNA-193a (MC38 Colon carcinoma): 71%
- Migration ability of A2058 cells (A2058 cells): significantly suppressed migration ability
- Apoptosis (48/72 h) (4T1): ↑ (Induction < 2x)
